In patent US10513493B2, “Cyclopropylamines as LSD1 inhibitors” (Incyte Corporation, priority 2014, dated 2019):

Target: LSD-1 enzyme (Homo sapiens (Human), UniProt O60341)
Test: LANCE LSD1/KDM1A demethylase assay (LSD1 histone demethylase biochemical assay)
Settings: 1 nM LSD-1 enzyme, 1 hour preincubation at 25° C., 0.4 μM Biotin-labeled Histone H3 peptide substrate
Experimental: Example A: LSD1 histone demethylase biochemical assay
LANCE LSD1/KDM1A demethylase assay—10 μL of 1 nM LSD-1 enzyme (ENZO BML-SE544-0050) in the assay buffer (50 mM Tris, pH 7.5, 0.01% Tween-20, 25 mM NaCl, 5 mM DTT) were preincubated for 1 hour at 25° C. with 0.8 μL compound/DMSO dotted in black 384 well polystyrene plates. Reactions were started by addition of 10 μL of assay buffer containing 0.4 μM Biotin-labeled Histone H3 peptide substrate: ART-K(Me1)-[…]-GGK(Biotin) SEQ ID NO: 1 (AnaSpec 64355) and incubated for 1 hour at 25° C. Reactions were stopped by addition of 10 μL 1× LANCE Detection Buffer (PerkinElmer CR97-100) supplemented with 1.5 nM Eu-anti-unmodified H3K4 Antibody (PerkinElmer TRF0404), and 225 nM LANCE Ultra Streptavidin (PerkinElmer TRF102) along with 0.9 mM Tranylcypromine-HCl (Millipore 616431). After stopping the reactions plates were incubated for 30 minutes and read on a PHERAstar FS plate reader (BMG Labtech).

With `Cc1nc(N2CC(CN[C@@H]3C[C@H]3c3ccccc3)C2)ccc1C#N` (relative stereo) [Example 4, 2-Methyl-6-[3-({[trans-2-phenylcyclopropyl]amino}methyl)azetidin-1-yl]nicotinonitrile] as the molecule, how does the IC50 read?
Its IC50 is < 100 nM.

How did the IC50 turn out when `Cc1cc(C(=O)NC(C)C)c(F)cc1N1CC(CN[C@@H]2C[C@H]2c2ccccc2)C1` (relative stereo) [Example 12, 2-Fluoro-N-isopropyl-5-methyl-4-(3-{[(trans-2-phenylcyclopropyl)amino]methyl}azetidin-1-yl)benzamide] was run?
The IC50 was < 100 nM.

How did the IC50 turn out when `CC(C)NC(=O)c1cc(F)c(N2CC(CN[C@@H]3C[C@H]3c3ccccc3)C2)c(F)c1` (relative stereo) [Example 6, 3,5-Difluoro-N-isopropyl-4-(3-{[(trans-2-phenylcyclopropyl)amino]methyl}azetidin-1-yl)benzamide] was run?
The IC50 was < 100 nM.

For `O=C(O)c1ccc(N2CCC(CN[C@@H]3C[C@H]3c3ccccc3)(Cc3ccc(F)cc3)CC2)cn1` [Example 21, 5-[4-(4-fluorobenzyl)-4-({[(1R,2S)-2-phenylcyclopropyl]amino}methyl)piperidin-1-yl]pyridine-2-carboxylic acid], which IC50 is on record?
Its IC50 is < 100 nM.

With `COCC1(CN[C@@H]2C[C@H]2c2ccccc2)CCN(c2ccnc(C(=O)O)c2)CC1` [Example 23, 4-[4-(methoxymethyl)-4-({[(1R,2S)-2-phenylcyclopropyl]amino}methyl)piperidin-1-yl]pyridine-2-carboxylic acid] as the molecule, how does the IC50 read?
The IC50 was < 100 nM.

How did the IC50 turn out when `N#CCC1(CN[C@@H]2C[C@H]2c2ccccc2)CCN(c2ncccc2C(F)(F)F)CC1` (relative stereo) [Example 19, {4-{[(trans-2-Phenylcyclopropyl)amino]methyl}-1-[3-(trifluoromethyl)pyridin-2-yl]piperidin-4-yl}acetonitrile] was run?
The IC50 was < 100 nM.

With `CC(C)NC(=O)c1cc(F)c(N2CC(CN[C@@H]3C[C@H]3c3ccccc3)C2)cc1Cl` (relative stereo) [Example 9, 2-Chloro-5-fluoro-N-isopropyl-4-(3-{[(trans-2-phenylcyclopropyl)amino]methyl}azetidin-1-yl)benzamide] as the molecule, how does the IC50 read?
The IC50 was < 100 nM.

With `CCNC(=O)c1cnc(N2CC(CN[C@@H]3C[C@H]3c3ccccc3)C2)cn1` (relative stereo) [Example 5, N-Ethyl-5-(3-{[(trans-2-phenylcyclopropyl)amino]methyl}azetidin-1-yl)pyrazine-2-carboxamide] as the molecule, how does the IC50 read?
Its IC50 is < 100 nM.

Which IC50 does the source give for `CC(C)NC(=O)c1ccc(N2CC(CN[C@@H]3C[C@H]3c3ccccc3)C2)c(F)c1F` (relative stereo) [Example 8, 2,3-Difluoro-N-isopropyl-4-(3-{[(trans-2-phenylcyclopropyl)amino]methyl}azetidin-1-yl)benzamide] here?
The IC50 was < 100 nM.

`N#Cc1ccc(N2CC(CN[C@@H]3C[C@H]3c3ccccc3)C2)c(F)c1` (relative stereo) [Example 1, 3-Fluoro-4-[3-({[trans-2-phenylcyclopropyl]amino}methyl)azetidin-1-yl]benzonitrile] was tested. Which IC50 did it give?
The IC50 was < 100 nM.

How did the IC50 turn out when `CC(C)NC(=O)c1c(F)cc(N2CC(CN[C@@H]3C[C@H]3c3ccccc3)C2)cc1F` (relative stereo) [Example 7, 2,6-Difluoro-N-isopropyl-4-(3-{[(trans-2-phenylcyclopropyl)amino]methyl}azetidin-1-yl)benzamide] was run?
The IC50 was < 100 nM.

`CC(C)NC(=O)c1ccc(N2CC(CN[C@@H]3C[C@H]3c3ccccc3)C2)c(F)c1` (relative stereo) [Example 10, 3-Fluoro-N-isopropyl-4-(3-{[(trans-2-phenylcyclopropyl)amino]methyl}azetidin-1-yl)benzamide] was tested. Which IC50 did it give?
The IC50 was < 100 nM.

`Nc1ccnc(N2CCC(N[C@H]3C[C@@H]3c3ccccc3)CC2)n1` [Example 31, 2-(4-{[(1S,2R)-2-phenylcyclopropyl]amino}piperidin-1-yl)pyrimidin-4-amine] was tested. Which IC50 did it give?
The IC50 was 100 to 500 nM.

With `COCC1(CN[C@@H]2C[C@H]2c2ccccc2)CCN(c2cccc(C(=O)O)n2)CC1` [Example 24, 6-[4-(methoxymethyl)-4-({[(1R,2S)-2-phenylcyclopropyl]amino}methyl)piperidin-1-yl]pyridine-2-carboxylic acid] as the molecule, how does the IC50 read?
The IC50 was < 100 nM.

Which IC50 does the source give for `CC1(CN[C@@H]2C[C@H]2c2ccccc2)CCN(c2cccc(C(=O)O)n2)CC1` [Example 26, 6-[4-methyl-4-({[(1R,2S)-2-phenylcyclopropyl]amino}methyl)piperidin-1-yl]pyridine-2-carboxylic acid] here?
Its IC50 is < 100 nM.

How did the IC50 turn out when `CC(C)NC(=O)c1cc(F)c(N2CC(CN[C@@H]3C[C@H]3c3ccccc3)C2)cc1F` (relative stereo) [Example 3, 2,5-Difluoro-N-isopropyl-4-(3-{[(trans-2-phenylcyclopropyl)amino]methyl}azetidin-1-yl)benzamide] was run?
The IC50 was < 100 nM.

With `Nc1ccnc(N2CCC(N[C@@H]3C[C@H]3c3ccccc3)CC2)n1` [Example 30, 2-(4-{[(1R,2S)-2-phenylcyclopropyl]amino}piperidin-1-yl)pyrimidin-4-amine] as the molecule, how does the IC50 read?
Its IC50 is < 100 nM.

With `COc1cc(N2CC(CN[C@@H]3C[C@H]3c3ccccc3)C2)ccc1C(=O)NC(C)C` (relative stereo) [Example 13, N-Isopropyl-2-methoxy-4-(3-{[(trans-2-phenylcyclopropyl)amino]methyl}azetidin-1-yl)benzamide] as the molecule, how does the IC50 read?
The IC50 was < 100 nM.

How did the IC50 turn out when `CC1(CN[C@@H]2C[C@H]2c2ccccc2)CCN(c2ccnc(C(=O)O)c2)CC1` [Example 27, 4-[4-methyl-4-({[(1R,2S)-2-phenylcyclopropyl]amino}methyl)piperidin-1-yl]pyridine-2-carboxylic acid] was run?
Its IC50 is < 100 nM.

Which IC50 does the source give for `CC1(CN[C@@H]2C[C@H]2c2ccccc2)CCN(c2ccc(C(=O)O)nc2)CC1` [Example 25, 5-[4-methyl-4-({[(1R,2S)-2-phenylcyclopropyl]amino}methyl)piperidin-1-yl]pyridine-2-carboxylic acid] here?
The IC50 was < 100 nM.

With `CNC(=O)c1ccc(N2CCC(C)(CN[C@@H]3C[C@H]3c3ccccc3)CC2)cn1` [Example 29, N-methyl-5-[4-methyl-4-({[(1R,2S)-2-phenylcyclopropyl]amino}methyl)piperidin-1-yl]pyridine-2-carboxamide] as the molecule, how does the IC50 read?
The IC50 was < 100 nM.

How did the IC50 turn out when `N#CCC1(CN[C@@H]2C[C@H]2c2ccccc2)CCN(c2cccc(Cl)c2C#N)CC1` (relative stereo) [Example 18, 2-Chloro-6-(4-(cyanomethyl)-4-{[(trans-2-phenylcyclopropyl)amino]methyl}piperidin-1-yl)benzonitrile] was run?
Its IC50 is < 100 nM.

With `O=C(O)C1(c2ccc(N3CCC(CN[C@@H]4C[C@H]4c4ccccc4)(Cc4ccc(F)cc4)CC3)cc2)CC1` [Example 22, 1-{4-[4-(4-fluorobenzyl)-4-({[(1R,2S)-2-phenylcyclopropyl]amino}methyl)piperidin-1-yl]phenyl}cyclopropanecarboxylic acid] as the molecule, how does the IC50 read?
Its IC50 is < 100 nM.

`O=C(NC1(C(F)(F)F)CC1)c1ccc(N2CC(CN[C@@H]3C[C@H]3c3ccccc3)C2)cn1` (relative stereo) [Example 15, 5-(3-{[(trans-2-Phenylcyclopropyl)amino]methyl}azetidin-1-yl)-N-[1-(trifluoromethyl)cyclopropyl]pyridine-2-carboxamide] was tested. Which IC50 did it give?
Its IC50 is < 100 nM.

With `CC(C)NC(=O)c1ccc(N2CC(CN[C@@H]3C[C@H]3c3ccccc3)C2)cc1F` (relative stereo) [Example 11, 2-Fluoro-N-isopropyl-4-(3-{[(trans-2-phenylcyclopropyl)amino]methyl}azetidin-1-yl)benzamide] as the molecule, how does the IC50 read?
The IC50 was < 100 nM.

With `N#Cc1cc(F)c(N2CC(CN[C@@H]3C[C@H]3c3ccccc3)C2)c(F)c1` (relative stereo) [Example 2, 3,5-Difluoro-4-[3-({[trans-2-phenylcyclopropyl]amino}methyl)azetidin-1-yl]benzonitrile] as the molecule, how does the IC50 read?
Its IC50 is < 100 nM.

With `CN1CCN(c2cc(N3CC(CN[C@@H]4C[C@H]4c4ccccc4)C3)ncn2)CC1` (relative stereo) [Example 16, N-({1-[6-(4-Methylpiperazin-1-yl)pyrimidin-4-yl]azetidin-3-yl}methyl)-trans-2-phenylcyclopropanamine] as the molecule, how does the IC50 read?
The IC50 was < 100 nM.

For `CC(C)NC(=O)c1ccc(N2CC(CN[C@@H]3C[C@H]3c3ccccc3)C2)c(Cl)c1` (relative stereo) [Example 14, 3-Chloro-N-isopropyl-4-(3-{[(trans-2-phenylcyclopropyl)amino]methyl}azetidin-1-yl)benzamide], which IC50 is on record?
Its IC50 is < 100 nM.

With `Cn1cc(N2CC(CN[C@@H]3C[C@H]3c3ccccc3)C2)cn1` (relative stereo) [Example 17, trans-N-{[1-(1-Methyl-1H-pyrazol-4-yl)azetidin-3-yl]methyl}-2-phenylcyclopropanamine] as the molecule, how does the IC50 read?
Its IC50 is < 100 nM.

How did the IC50 turn out when `O=C(O)c1cccc(N2CCC(CN[C@@H]3C[C@H]3c3ccccc3)(Cc3ccc(F)cc3)CC2)n1` [Example 20, 6-[4-(4-fluorobenzyl)-4-({[(1R,2S)-2-phenylcyclopropyl]amino}methyl)piperidin-1-yl]pyridine-2-carboxylic acid] was run?
Its IC50 is < 100 nM.

For `CN(C)C(=O)c1ccc(N2CCC(C)(CN[C@@H]3C[C@H]3c3ccccc3)CC2)cn1` [Example 28, N,N-dimethyl-5-[4-methyl-4-({[(1R,2S)-2-phenylcyclopropyl]amino}methyl)piperidin-1-yl]pyridine-2-carboxamide], which IC50 is on record?
The IC50 was < 100 nM.
